Assay [1] concerns voltage-gated sodium ion channels (NaV). The experiment in a line: Assays for detecting and measuring NaV inhibition (Table 3 activity). The note with it: NaV subtype and assay format not stated. It is filed as cell-based. As for the experimental part: Compounds of the invention are useful as antagonists of voltage-gated sodium ion channels. Antagonist properties of test compounds were assessed as follows. Cells expressing the NaV of interest were placed into microtiter plates. After an incubation period, the cells were stained with fluorescent dyes sensitive to the transmembrane potential. The test compounds were added to the microtiter plate. The cells were stimulated with either a chemical or electrical means to evoke a NaV dependent membrane potential change from unblocked channels, which was detected and measured with trans-membrane potential-sensitive dyes. Antagonists were detected as a decreased membrane potential response to the stimulus. The optical membrane potential assay utilized voltage-sensitive FRET sensors described by Gonzalez and Tsien (See, Gonzalez, J. E. and R. Y. Tsien (1995) “Voltage sensing by fluorescence resonance energy transfer in single cells” Biophys J 69(4): 1272-80, and Gonzalez, J. E. and R. Y. Tsien (1997) “Improved indicators of cell membrane potential that use fluorescence resonance energy transfer” Chem Biol 4(4): 269-77) in combination with instrumentation for measuring fluorescence changes such as the Voltage/Ion Probe Reader (VIPR®) (See, Gonzalez, J. E., K. Oades, et al. (1999) “Cell-based assays and instrumentation for screening ion-channel targets” Drug Discov Today 4(9): 431-439).
VIPR® Optical Membrane Potential Assay Method with Chemical Stimulation
24 hours before the assay on VIPR, CHO cells […] expressing a NaV1.2 type voltage-gated NaV are seeded in 96-well poly-lysine coated plates at 60,000 cells per well. Other subtypes are performed in an analogous mode in a cell line expressing the NaV of interest. • 1) On the day of the assay, medium is aspirated and cells are washed twice with 225 μL of Bath Solution #2 (BS#2). • 2) A 15 μM CC2-DMPE solution is prepared by mixing 5 mM coumarin stock solution with 10% Pluronic 127 1:1 and then dissolving the mix in the appropriate volume of BS#2. • 3) After bath solution is removed from the 96-well plates, the cells are loaded with 80 μL of the CC2-DMPE solution. Plates are incubated in the dark for 30 minutes at room temperature. • 4) While the cells are being stained with coumarin, a […] oxonol solution in BS#2 is prepared. In addition to DiSBAC2(3), this solution should contain 0.75 mM ABSC1 and […] veratridine (prepared from 10 mM EtOH stock, Sigma #V-5754). • 5) After 30 minutes, CC2-DMPE is removed and the cells are washed twice with 225 μL of BS#2. As before, the residual volume should be 40 μL. • 6) Upon removing the bath, the cells are loaded with 80 μL of the DiSBAC2(3) solution, after which test compound, dissolved in DMSO, is added to achieve the desired test concentration to each well from the drug addition plate and mixed thoroughly. The volume in the well should be roughly 121 μL. The cells are then incubated for 20-30 minutes. • 7) Once the incubation is complete, the cells are ready to be assayed on VIPR® with a sodium addback protocol. 120 μL of Bath solution #1 is added to stimulate the NaV dependent depolarization. […] tetracaine was used as an antagonist positive control for block of the NaV channel. Analysis of VIPR® Data:
Data are analyzed and reported as normalized ratios of background-subtracted emission intensities measured in the 460 nm and 580 nm channels. Background intensities are then subtracted from each assay channel. Background intensities are obtained by measuring the emission intensities during the same time periods from identically treated assay wells in which there are no cells. The response as a function of time is then reported as the ratios obtained using the following formula: […]
The data is further reduced by calculating the initial (Ri) and final (Rf) ratios. These are the average ratio values during part or all of the pre-stimulation period, and during sample points during the stimulation period. […]

For assay [2] the following is noted: neuropathic pain; cited from earlier work.

A value given as a limit tells only on which side of the number the result lay.

In general, IC50 refers to the concentration that inhibits the measured activity by half. Consider `CC(C(=O)N1CCC(S(=O)(=O)Nc2ccccc2)CC1)n1ccc2ccccc21` (centres unmarked) [Compound 3, 1-[2-(1H-Indol-1-yl)propanoyl]-N-phenyl-piperidine-4-sulfonamide], for which, in assay [1], the half-inhibitory concentration (IC50) was in the range of 5 to 20 µM.
As to `O=C(COc1ccc(F)c(Cl)c1)N1CCC(S(=O)(=O)NCc2ccccc2)C1` (centres unmarked) [Compound 13, N-Benzyl-1-[2-(3-chloro-4-fluoro-phenoxy)acetyl]-pyrrolidine-3-sulfonamide], the half-maximal inhibitory concentration (IC50) in assay [1] was in the range of 5 to 20 µM.
In the case of `CC(C(=O)N1CCC(S(=O)(=O)Nc2ccccc2)C1)n1ccc2ccccc21` (centres unmarked) [Compound 12, 1-[2-(1H-Indol-1-yl)propanoyl]-N-phenyl-pyrrolidine-3-sulfonamide], the IC50 in assay [1] lay within 5 to 20 µM.
Take `O=C(CCn1ccc2cc(Cl)ccc21)N1CCC(S(=O)(=O)N2CCCC2)C1` (centres unmarked) [Compound 10, 3-(5-Chloro-1H-indol-1-yl)-1-(3-pyrrolidin-1-ylsulfonylpyrrolidin-1-yl)-propan-1-one]: the half-inhibitory concentration (IC50) in assay [1] fell in the range of 5 to 20 µM.
Regarding `NCC1(CC(=O)O)CCCCC1` [Gabapentin], the “share of patients in whom it works” value in assay [2] is 60%.
Consider `O=C(COc1ccnc2c(C(F)(F)F)cccc12)N1CCC(S(=O)(=O)N2CCCC2)CC1` [Compound 20], for which the IC50 in assay [1] is > 20 µM.
Regarding `O=C(CCn1ccc2cc(Cl)ccc21)N1CCC(S(=O)(=O)Nc2ccccc2)C1` (centres unmarked) [Compound 16], in assay [1], the IC50 lay in the range of 5 to 20 µM.
On to `O=C(COc1ccc(F)c(Cl)c1)N1CCC(S(=O)(=O)NCc2ccccc2)CC1` [Compound 4, N-Benzyl-1-[2-(3-chloro-4-fluoro-phenoxy)acetyl]-piperidine-4-sulfonamide], for which the 50% inhibitory concentration (IC50) in assay [1] fell in the range of 5 to 20 µM.
Turning to `O=C(COc1ccnc2c(C(F)(F)F)cccc12)N1CCC(S(=O)(=O)N2CCCC2)C1` (centres unmarked) [Compound 11, 1-(3-Pyrrolidin-1-ylsulfonylpyrrolidin-1-yl)-2-[[8-(trifluoromethyl)-4-quinoly]oxy]ethanone], the IC50 in assay [1] was > 20 µM.
In the case of `O=C(COc1ccc(F)c(Cl)c1)N1CCC(S(=O)(=O)Nc2ccccc2)C1` (centres unmarked) [Compound 15], in assay [1], the IC50 lay within 5 to 20 µM.
With `CN(C)S(=O)(=O)C1CCN(C(=O)CCn2ccc3cc(Cl)ccc32)CC1` [Compound 7, 1-[3-(5-Chloro-1H-indol-1-yl)propanoyl]-N,N-dimethyl-piperidine-4-sulfonamide], in assay [1], the IC50 is > 20 µM.
On to `O=C(COc1ccnc2c(C(F)(F)F)cccc12)N1CCC(S(=O)(=O)NCc2ccccc2)CC1` [Compound 5, N-Benzyl-1-[2-[[8-(trifluoromethyl)-4-quinolyl]oxy]acetyl]-piperidine-4-sulfonamide], for which, in assay [1], the IC50 was > 20 µM.
On to `CNS(=O)(=O)C1CCN(C(=O)COc2ccnc3c(C(F)(F)F)cccc23)CC1` [Compound 23], for which, in assay [1], the half-maximal inhibitory concentration (IC50) was > 20 µM.
On the same count and under the same terms, the same measure for `CC(C(=O)N1CCC(S(=O)(=O)N2CCCC2)C1)n1ccc2ccccc21` (centres unmarked) [Compound 21]: > 20 µM; for `O=C(CCn1ccc2cc(Cl)ccc21)N1CCC(S(=O)(=O)NCc2ccccc2)CC1` [Compound 19]: 5 to 20 µM.
Take `CC(C(=O)N1CCC(S(=O)(=O)NCc2ccccc2)C1)n1ccc2ccccc21` (centres unmarked) [Compound 17]: the IC50 in assay [1] lay within 5 to 20 µM.
Still for that read-out and setting: the same measure for `O=C(COc1ccc(F)c(Cl)c1)N1CCC(S(=O)(=O)N2CCCC2)C1` (centres unmarked) [Compound 18]: > 20 µM.
As for `CNS(=O)(=O)C1CCN(C(=O)C(C)n2ccc3ccccc32)CC1` (centres unmarked) [Compound 1], in assay [1], the Activity entry is “None”.
Turning to `O=C(CCn1ccc2cc(Cl)ccc21)N1CCC(S(=O)(=O)Nc2ccccc2)CC1` [Compound 2, 1-[3-(5-chloro-1H-indol-1-yl)propanoyl]-N-phenyl-piperidine-4-sulfonamide], in assay [1], the IC50 lay in the range of 5 to 20 µM.
For `O=C(COc1ccnc2c(C(F)(F)F)cccc12)N1CCC(S(=O)(=O)NCc2ccccc2)C1` (centres unmarked) [Compound 14], the IC50 in assay [1] was in the range of 5 to 20 µM.

Values taken from US8129546B2, “Derivatives for modulation of ion channels” (Vertex Pharmaceuticals Incorporated, priority 2005, dated 2012).
